What was measured:
Test in all cases: cell-based
Parameters in all cases: Eurofins Cerep functional GPCR screen, antagonist mode, inhibition of control agonist response
Settings in all cases: read-out: % Inhibition of Control Agonist Response, Mean
CCR3 = CCR3 (Homo sapiens, UniProt P51677)
H1 = target: T1, H1 (Homo sapiens, UniProt P35367)
T1 construct: gene HRH1

GAL1 = target: T2, GAL1 (Homo sapiens, UniProt P47211)
T2 construct: gene GALR1

A1 = target: T3, A1 (Homo sapiens, UniProt P30542)
T3 construct: gene ADORA1
T3 sequence (P30542 whole entry): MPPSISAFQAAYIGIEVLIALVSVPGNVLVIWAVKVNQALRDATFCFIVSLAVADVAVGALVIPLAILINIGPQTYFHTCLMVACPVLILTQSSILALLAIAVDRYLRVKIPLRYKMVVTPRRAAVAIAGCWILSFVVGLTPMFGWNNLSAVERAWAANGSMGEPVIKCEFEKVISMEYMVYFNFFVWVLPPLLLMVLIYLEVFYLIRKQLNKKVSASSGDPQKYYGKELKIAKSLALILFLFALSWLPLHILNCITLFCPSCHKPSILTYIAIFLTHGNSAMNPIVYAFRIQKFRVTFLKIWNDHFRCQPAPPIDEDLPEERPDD

CCR6 = CCR6 (Homo sapiens, UniProt P51684)
Chain of CCR6 (P51684 whole entry): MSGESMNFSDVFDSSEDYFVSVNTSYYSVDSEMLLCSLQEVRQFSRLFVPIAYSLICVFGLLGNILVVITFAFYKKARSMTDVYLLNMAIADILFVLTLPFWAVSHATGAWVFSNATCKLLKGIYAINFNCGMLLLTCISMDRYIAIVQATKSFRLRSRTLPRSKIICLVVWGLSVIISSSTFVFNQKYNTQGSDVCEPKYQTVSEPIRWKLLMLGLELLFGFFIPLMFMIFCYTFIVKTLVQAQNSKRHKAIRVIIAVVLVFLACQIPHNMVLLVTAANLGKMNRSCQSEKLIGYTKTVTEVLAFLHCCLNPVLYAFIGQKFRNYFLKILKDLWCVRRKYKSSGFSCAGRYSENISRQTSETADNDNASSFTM

TGR5 = target: T4, TGR5 (Homo sapiens, UniProt Q8TDU6)
T4 construct: gene GPBAR1
T4 sequence (Q8TDU6 whole entry): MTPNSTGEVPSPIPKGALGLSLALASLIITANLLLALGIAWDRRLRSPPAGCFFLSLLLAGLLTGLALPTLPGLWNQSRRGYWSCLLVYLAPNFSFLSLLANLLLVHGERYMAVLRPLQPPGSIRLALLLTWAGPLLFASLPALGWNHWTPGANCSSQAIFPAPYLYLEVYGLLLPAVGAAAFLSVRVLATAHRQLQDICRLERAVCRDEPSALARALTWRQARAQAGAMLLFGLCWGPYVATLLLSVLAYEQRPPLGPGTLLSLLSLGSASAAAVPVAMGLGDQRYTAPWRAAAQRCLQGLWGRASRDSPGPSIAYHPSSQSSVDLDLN

A3 = target: T5, A3 (Homo sapiens, UniProt P0DMS8)
T5 construct: gene ADORA3
T5 sequence (P0DMS8 whole entry): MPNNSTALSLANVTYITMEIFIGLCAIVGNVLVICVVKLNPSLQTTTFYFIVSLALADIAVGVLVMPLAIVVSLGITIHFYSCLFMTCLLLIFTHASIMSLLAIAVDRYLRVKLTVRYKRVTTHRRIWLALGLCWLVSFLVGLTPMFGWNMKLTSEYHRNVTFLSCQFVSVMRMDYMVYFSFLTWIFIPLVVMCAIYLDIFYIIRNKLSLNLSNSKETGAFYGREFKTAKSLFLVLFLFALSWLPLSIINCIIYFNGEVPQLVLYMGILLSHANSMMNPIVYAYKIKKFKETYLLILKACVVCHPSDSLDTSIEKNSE

BB2 = target: T6, BB2 (Homo sapiens, UniProt P30550)
T6 construct: gene GRPR
T6 sequence (P30550 whole entry): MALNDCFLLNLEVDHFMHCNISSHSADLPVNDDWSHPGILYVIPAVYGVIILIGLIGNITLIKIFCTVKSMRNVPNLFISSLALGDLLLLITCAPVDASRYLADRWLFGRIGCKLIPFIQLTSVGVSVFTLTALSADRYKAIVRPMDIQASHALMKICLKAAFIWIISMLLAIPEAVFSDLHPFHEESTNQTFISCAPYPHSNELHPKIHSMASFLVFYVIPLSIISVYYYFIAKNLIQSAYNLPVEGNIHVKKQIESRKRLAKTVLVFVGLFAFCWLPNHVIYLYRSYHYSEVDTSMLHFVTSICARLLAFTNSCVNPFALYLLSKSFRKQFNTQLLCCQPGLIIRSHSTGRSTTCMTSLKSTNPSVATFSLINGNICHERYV

α1A = target: T7, α1A (Homo sapiens, UniProt P35348)
T7 construct: gene ADRA1A

GAL2 = target: T8, GAL2 (Homo sapiens, UniProt O43603)
T8 construct: gene GALR2

FPR1 = FPR1 (Homo sapiens, UniProt P21462)
FFA1 = target: T9, FFA1 (Homo sapiens, UniProt O14842)
T9 construct: gene FFAR1
T9 sequence (O14842 whole entry): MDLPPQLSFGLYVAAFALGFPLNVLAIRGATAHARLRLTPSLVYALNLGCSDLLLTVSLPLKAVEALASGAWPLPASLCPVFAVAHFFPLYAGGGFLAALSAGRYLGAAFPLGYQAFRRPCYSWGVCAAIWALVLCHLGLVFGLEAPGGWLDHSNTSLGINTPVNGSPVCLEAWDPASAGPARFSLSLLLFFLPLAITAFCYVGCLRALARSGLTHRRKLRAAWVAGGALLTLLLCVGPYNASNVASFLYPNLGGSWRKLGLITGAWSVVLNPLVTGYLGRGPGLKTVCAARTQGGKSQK

CXCR6 = CXCR6 (Homo sapiens, UniProt O00574)
KiSS1 / GPR54 = target: T10, KiSS1 / GPR54 (Homo sapiens, UniProt Q969F8)
T10 construct: gene KISS1R

CCR7 = CCR7 (Homo sapiens, UniProt P32248)
BB1 = target: T11, BB1 (Homo sapiens, UniProt P28336)
T11 construct: gene NMBR
T11 sequence (P28336 whole entry): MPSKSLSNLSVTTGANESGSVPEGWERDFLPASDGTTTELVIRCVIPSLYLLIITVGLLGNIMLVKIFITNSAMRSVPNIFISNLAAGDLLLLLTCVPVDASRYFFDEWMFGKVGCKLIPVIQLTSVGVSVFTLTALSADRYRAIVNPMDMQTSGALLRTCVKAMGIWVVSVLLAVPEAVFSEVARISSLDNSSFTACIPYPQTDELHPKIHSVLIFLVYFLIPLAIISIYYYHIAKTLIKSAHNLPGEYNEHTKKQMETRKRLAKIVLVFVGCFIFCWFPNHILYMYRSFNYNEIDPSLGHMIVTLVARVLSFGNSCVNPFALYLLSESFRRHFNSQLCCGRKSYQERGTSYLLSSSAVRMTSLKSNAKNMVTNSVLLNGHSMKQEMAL

CCK1 (CCKA) = target: T12, CCK1 (CCKA) (Homo sapiens, UniProt P32238)
T12 construct: gene CCKAR

CT (Calcitonin) = target: T13, CT (Calcitonin) (Homo sapiens, UniProt P30988)
T13 construct: gene CALCR
T13 sequence (P30988 whole entry): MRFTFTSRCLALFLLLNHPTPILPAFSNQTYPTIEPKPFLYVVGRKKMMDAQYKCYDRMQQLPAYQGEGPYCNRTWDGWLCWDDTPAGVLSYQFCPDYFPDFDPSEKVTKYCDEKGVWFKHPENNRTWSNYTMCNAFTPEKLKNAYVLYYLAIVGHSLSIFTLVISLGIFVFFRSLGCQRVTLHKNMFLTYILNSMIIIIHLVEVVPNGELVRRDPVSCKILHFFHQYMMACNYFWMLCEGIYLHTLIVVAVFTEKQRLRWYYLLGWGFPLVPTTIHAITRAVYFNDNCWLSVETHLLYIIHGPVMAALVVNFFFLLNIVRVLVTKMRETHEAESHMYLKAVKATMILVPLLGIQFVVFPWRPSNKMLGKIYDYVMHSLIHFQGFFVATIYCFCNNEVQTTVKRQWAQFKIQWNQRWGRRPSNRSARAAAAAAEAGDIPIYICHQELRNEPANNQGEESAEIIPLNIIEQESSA

CXCR3 = CXCR3 (Homo sapiens, UniProt P49682)
CCR8 = CCR8 (Homo sapiens, UniProt P51685)
GnRH = target: T14, GnRH (Homo sapiens, UniProt P30968)
T14 construct: gene GNRHR

CCR4 = CCR4 (Homo sapiens, UniProt P51679)
Chain of CCR4 (P51679 whole entry): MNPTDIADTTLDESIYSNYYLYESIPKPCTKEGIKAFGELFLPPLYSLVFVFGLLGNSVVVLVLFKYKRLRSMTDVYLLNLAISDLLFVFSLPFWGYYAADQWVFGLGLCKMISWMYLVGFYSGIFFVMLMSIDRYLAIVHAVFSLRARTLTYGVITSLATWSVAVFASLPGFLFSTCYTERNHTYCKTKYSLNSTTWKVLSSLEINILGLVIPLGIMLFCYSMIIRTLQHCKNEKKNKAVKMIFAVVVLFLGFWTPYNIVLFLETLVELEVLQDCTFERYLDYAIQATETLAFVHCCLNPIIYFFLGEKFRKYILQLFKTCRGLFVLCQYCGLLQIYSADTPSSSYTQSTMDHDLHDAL

H2 = target: T15, H2 (Homo sapiens, UniProt P25021)
T15 construct: gene HRH2

α2C = target: T16, α2C (Homo sapiens, UniProt P18825)
T16 construct: gene ADRA2C

D4.4 = target: T17, D4.4 (Homo sapiens, UniProt P21917)
T17 construct: gene DRD4; D4.4
T17 sequence (P21917 whole entry): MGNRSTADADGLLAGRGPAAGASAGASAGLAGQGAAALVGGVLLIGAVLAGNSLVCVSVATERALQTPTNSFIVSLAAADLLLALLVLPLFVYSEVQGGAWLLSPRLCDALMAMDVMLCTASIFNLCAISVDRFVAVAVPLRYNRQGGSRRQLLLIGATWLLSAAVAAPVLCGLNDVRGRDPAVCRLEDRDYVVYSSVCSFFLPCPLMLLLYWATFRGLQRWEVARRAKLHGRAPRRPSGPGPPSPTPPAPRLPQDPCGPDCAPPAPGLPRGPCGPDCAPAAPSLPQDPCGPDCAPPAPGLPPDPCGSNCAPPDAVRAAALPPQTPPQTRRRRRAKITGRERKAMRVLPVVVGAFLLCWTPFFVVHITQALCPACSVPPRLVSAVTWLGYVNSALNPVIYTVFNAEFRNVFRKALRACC

CX3CR1 = CX3CR1 (Homo sapiens, UniProt P49238)
Chain of CX3CR1 (P49238 whole entry): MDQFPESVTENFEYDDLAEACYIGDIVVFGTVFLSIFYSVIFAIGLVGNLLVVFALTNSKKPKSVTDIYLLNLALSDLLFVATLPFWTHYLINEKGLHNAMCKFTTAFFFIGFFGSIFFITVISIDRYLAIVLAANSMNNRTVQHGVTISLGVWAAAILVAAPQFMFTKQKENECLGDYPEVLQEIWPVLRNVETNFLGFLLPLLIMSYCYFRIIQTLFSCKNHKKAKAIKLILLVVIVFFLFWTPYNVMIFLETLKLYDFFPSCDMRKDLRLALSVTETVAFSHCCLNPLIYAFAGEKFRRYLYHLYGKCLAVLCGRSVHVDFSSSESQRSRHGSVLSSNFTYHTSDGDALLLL

Chain of CCR3 (P51677 whole entry): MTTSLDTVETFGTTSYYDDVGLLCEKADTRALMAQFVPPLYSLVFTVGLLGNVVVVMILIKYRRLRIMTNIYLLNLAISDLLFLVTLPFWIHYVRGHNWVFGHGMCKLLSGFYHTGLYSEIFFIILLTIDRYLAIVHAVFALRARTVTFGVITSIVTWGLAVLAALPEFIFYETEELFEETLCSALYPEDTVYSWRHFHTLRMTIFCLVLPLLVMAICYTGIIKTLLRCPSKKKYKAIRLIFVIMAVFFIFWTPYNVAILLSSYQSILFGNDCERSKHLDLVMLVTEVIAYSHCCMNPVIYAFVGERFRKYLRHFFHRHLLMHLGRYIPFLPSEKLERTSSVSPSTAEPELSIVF
T2 sequence (P47211 whole entry): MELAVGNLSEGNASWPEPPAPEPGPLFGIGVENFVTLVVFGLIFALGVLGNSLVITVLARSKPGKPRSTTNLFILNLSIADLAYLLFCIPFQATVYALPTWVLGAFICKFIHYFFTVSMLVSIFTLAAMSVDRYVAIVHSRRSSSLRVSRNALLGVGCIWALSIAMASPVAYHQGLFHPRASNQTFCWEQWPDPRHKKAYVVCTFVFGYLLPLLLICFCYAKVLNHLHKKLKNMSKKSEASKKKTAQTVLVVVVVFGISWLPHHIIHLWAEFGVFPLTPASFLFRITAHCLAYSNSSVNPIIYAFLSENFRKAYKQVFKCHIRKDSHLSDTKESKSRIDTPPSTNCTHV

[O-][S@@+](Cc1cncs1)C(c1ccccc1)c1ccccc1 [S-CE-123, (S)-5-((Benzhydrylsulfinyl)Methyl)Thiazole]
inhibition at 2.8 µM (CCR3): -10.7%
inhibition at 2.8 µM (H1): -1.9%
inhibition at 2.8 µM (GAL1): 2.3%
inhibition at 2.8 µM (A1): 10.6%
inhibition at 2.8 µM (CCR6): -26.7%
inhibition at 2.8 µM (TGR5): -0.3%
inhibition at 2.8 µM (A3): -1.8%
inhibition at 2.8 µM (BB2): -23.2%
inhibition at 2.8 µM (α1A): 3.1%
inhibition at 2.8 µM (GAL2): -4.8%
inhibition at 2.8 µM (FPR1): 1.6%
inhibition at 2.8 µM (FFA1): -2.8%
inhibition at 2.8 µM (CXCR6): -7.6%
inhibition at 2.8 µM (KiSS1 / GPR54): -2.8%
inhibition at 2.8 µM (CCR7): 2.8%
inhibition at 2.8 µM (BB1): -10.5%
inhibition at 2.8 µM (CCK1 (CCKA)): 18.2%
inhibition at 2.8 µM (CT (Calcitonin)): -21.7%
inhibition at 2.8 µM (CXCR3): -7.8%
inhibition at 2.8 µM (CCR8): -19.9%
inhibition at 2.8 µM (GnRH): 3.9%
inhibition at 2.8 µM (CCR4): -5.8%
inhibition at 2.8 µM (H2): -2.4%
inhibition at 2.8 µM (α2C): 0.3%
inhibition at 2.8 µM (D4.4): -7.9%
inhibition at 2.8 µM (CX3CR1): -15.8%

Source: article PMC10046369, “Low-Affinity/High-Selectivity Dopamine Transport Inhibition Sufficient to Rescue Cognitive Functions in the Aging Rat” (Biomolecules, 2023)
